Test: xn = mol fraction of the nth substance listed
Settings: 101 kPa, Liquid; for viscosity: Capillary tube (Ostwald / Ubbelohde) method; for speed of sound: Sing-around technique in a fixed-path interferometer; for mass density: Vibrating tube method

CCOCCOCCO [3,6-dioxa-1-octanol] + CCCCCCO
Settings	mass density, 293.15 K [kg/m3]	mass density, 298.15 K [kg/m3]	speed of sound, 293.15 K [m/s]	speed of sound, 298.15 K [m/s]	viscosity, 293.15 K [mPa·s]	viscosity, 298.15 K [mPa·s]
x1 = 0.0515	828.146	824.518	1322.4	1305.4	4.442	3.906
x1 = 0.1039	837.651	833.976	1324.9	1308	4.111	3.655
x1 = 0.1456	845.454	841.738	1327.5	1310.6	3.932	3.495
x1 = 0.2078	857.041	853.267	1331.1	1314.3	3.714	3.352
x1 = 0.2501	864.989	861.179	1334.2	1317.4	3.614	3.237
x1 = 0.3127	876.967	873.107	1338.7	1322	3.482	3.121
x1 = 0.3517	884.493	880.591	1342.1	1325.3	3.423	3.066
x1 = 0.5241	918.471	914.427	1358.7	1341.9	3.279	2.951
x1 = 0.6227	938.481	934.36	1370.5	1353.8	3.308	2.965
x1 = 0.7217	959.157	954.955	1384.3	1367.5	3.352	3.009
x1 = 0.8227	980.826	976.55	1400.4	1383.5	3.384	3.054
x1 = 0.915	1000.91	996.56	1416.4	1399.5	3.588	3.235
x1 = 1	–	–	–	–	3.626	3.278
